Converted amounts (≈) assume the structure as drawn. One block for each compound: values may come before it.
Assays:
[1] = biological target: Gamma-secretase; assay: Modulation of gamma secretase in human H4 cells overexpressing human APP695 harboring K595N/M596L Swedish double mutant assessed as reduction in total amyloid beta (1 to 42 residues) production measured after 24 hrs by AlphaLISA assay; format: cell-based
[2] = Solubility of compound by LYSA assay; format: physicochemical
[3] = Clearance in human hepatocytes assessed per million cells; format: ADME, cell-based, Hepatocyte; settings: read-out: CLH
[4] = biological target: P-gp (ABCB1) (Homo sapiens, UniProt P08183); assay: Substrate activity at human P-gp assessed as efflux ratio; format: ADME; settings: not told
P-gp (ABCB1), sequence (P08183 whole entry): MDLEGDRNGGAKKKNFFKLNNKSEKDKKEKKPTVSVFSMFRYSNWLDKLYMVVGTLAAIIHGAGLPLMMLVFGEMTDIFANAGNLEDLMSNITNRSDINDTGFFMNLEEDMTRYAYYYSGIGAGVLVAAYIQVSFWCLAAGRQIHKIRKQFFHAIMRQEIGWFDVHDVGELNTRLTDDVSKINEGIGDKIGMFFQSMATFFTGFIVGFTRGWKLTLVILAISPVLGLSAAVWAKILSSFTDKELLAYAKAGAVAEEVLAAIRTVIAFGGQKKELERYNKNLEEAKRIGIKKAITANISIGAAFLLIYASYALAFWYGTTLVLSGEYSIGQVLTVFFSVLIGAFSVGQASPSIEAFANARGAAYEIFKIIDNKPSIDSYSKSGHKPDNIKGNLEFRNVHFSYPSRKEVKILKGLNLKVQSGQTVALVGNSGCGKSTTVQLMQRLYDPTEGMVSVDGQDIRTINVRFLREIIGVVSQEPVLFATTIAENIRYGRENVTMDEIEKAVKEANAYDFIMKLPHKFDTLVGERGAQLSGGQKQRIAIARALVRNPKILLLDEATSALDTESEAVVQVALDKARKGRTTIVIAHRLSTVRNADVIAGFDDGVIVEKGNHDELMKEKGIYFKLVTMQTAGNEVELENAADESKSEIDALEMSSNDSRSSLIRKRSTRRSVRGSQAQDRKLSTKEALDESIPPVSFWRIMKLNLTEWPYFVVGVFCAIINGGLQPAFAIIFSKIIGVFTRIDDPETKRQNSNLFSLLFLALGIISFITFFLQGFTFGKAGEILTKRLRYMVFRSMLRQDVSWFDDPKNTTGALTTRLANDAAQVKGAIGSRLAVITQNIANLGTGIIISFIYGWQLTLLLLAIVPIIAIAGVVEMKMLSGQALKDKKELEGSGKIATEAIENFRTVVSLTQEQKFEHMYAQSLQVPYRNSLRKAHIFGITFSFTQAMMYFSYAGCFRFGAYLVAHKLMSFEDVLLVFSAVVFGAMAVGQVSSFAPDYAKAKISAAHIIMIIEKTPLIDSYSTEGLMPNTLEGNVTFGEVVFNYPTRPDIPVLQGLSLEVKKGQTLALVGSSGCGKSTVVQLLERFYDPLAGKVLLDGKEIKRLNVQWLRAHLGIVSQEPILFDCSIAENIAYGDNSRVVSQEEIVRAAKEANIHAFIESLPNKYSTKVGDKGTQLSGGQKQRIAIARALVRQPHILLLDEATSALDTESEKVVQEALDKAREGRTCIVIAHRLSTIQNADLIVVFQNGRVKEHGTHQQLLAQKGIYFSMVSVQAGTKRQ

[5] = biological target: Voltage-gated inwardly rectifying potassium channel KCNH2 (Homo sapiens, UniProt Q12809); assay: (§1) Inhibition of human ERG
Voltage-gated inwardly rectifying potassium channel KCNH2, sequence (Q12809 whole entry): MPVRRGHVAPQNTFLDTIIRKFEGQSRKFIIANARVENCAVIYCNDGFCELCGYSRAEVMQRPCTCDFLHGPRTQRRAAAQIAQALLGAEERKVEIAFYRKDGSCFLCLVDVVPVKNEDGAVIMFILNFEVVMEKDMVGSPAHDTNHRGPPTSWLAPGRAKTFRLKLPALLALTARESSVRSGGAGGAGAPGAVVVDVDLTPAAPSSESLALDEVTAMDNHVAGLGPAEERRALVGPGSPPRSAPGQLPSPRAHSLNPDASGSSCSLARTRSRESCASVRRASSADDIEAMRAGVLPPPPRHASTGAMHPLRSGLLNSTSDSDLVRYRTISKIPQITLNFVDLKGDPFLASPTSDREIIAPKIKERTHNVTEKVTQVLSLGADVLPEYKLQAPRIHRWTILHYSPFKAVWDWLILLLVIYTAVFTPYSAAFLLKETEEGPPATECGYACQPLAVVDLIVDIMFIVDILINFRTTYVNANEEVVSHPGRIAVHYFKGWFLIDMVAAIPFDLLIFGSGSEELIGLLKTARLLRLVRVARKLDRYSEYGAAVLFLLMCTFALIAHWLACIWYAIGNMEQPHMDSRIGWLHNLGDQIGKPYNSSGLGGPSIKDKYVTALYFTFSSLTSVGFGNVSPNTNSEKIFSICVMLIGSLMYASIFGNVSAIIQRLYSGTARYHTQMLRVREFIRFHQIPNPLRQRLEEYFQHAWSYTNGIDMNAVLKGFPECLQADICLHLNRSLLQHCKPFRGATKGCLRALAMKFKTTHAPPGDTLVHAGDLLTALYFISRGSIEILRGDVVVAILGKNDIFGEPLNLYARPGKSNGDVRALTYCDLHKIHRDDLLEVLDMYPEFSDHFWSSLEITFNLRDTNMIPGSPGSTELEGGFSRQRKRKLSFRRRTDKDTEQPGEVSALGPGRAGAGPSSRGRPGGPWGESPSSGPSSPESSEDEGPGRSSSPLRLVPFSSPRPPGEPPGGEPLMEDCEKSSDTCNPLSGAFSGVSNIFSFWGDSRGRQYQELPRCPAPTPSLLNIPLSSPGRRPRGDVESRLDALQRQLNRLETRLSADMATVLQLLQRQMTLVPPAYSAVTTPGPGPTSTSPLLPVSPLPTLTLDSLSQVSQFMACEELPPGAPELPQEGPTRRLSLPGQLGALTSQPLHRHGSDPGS

[6] = biological target: hERG (KCNH2) (Homo sapiens, UniProt Q12809); assay: as §1; settings: human
hERG (KCNH2), sequence (Q12809 whole entry, the tested form may be a part): as the sequence (Q12809 whole entry) above

[7] = Modulation of mouse gamma secretase in N2A cells assessed as reduction in total amyloid beta (1 to 42 residues) production; format: cell-based
[8] = biological target: Gamma-secretase; assay: Modulation of gamma secretase in human H4 cells overexpressing human APP695 harboring K595N/M596L Swedish double mutant assessed as reduction in free amyloid beta (1 to 42 residues) production measured after 24 hrs by AlphaLISA assay; format: cell-based
[9] = biological target: Gamma-secretase; assay: Modulation of human gamma secretase expressed in HEK293 cells assessed as reduction in total amyloid beta (1 to 42 residues) production; format: cell-based
[10] = biological target: Gamma-secretase; assay: Modulation of human gamma secretase expressed in HEK293 cells assessed as reduction in free amyloid beta (1 to 42 residues) production; format: cell-based
[11] = Modulation of mouse gamma secretase in N2A cells assessed as reduction in free amyloid beta (1 to 42 residues) production; format: cell-based
[12] = Distribution coefficient, logD of compound; format: physicochemical; settings: octanol/water
[13] = Clearance in mouse hepatocytes assessed per million cells; format: ADME, cell-based, Hepatocyte; settings: read-out: CLH
[14] = Clearance in rat hepatocytes assessed per million cells; format: ADME, cell-based, Hepatocyte; settings: read-out: CLH
[15] = system: P-gp; assay: Substrate activity at mouse P-gp assessed as efflux ratio; format: ADME; settings: not told
[16] = Unbound fraction in human plasma; format: ADME, cell-free
[17] = Unbound fraction in mouse plasma; format: ADME, cell-free
[18] = Unbound fraction in rat plasma; format: ADME, cell-free
[19] = Glutathione reactivity of compound; format: physicochemical
[20] = Genotoxicity in Salmonella typhimurium by Ames test; format: toxicity; settings: salmonella enterica subsp. enterica serovar typhimurium
[21] = Clearance in C57BL/6J mouse at 1 mg/kg, iv administered as single dose; format: ADME, organism-based; settings: in vivo
[22] = Terminal half life in C57BL/6J mouse at 1 mg/kg, iv administered as single dose; format: ADME, organism-based; settings: in vivo, read-out: beta t1/2 (converted)
[23] = Volume of distribution at steady state in C57BL/6J mouse at 1 mg/kg, iv administered as single dose; format: ADME, organism-based; settings: in vivo, read-out: Vdss
[24] = Oral bioavailability in C57BL/6J mouse at 3 mg/kg administered as single dose; format: ADME, organism-based; settings: in vivo
[25] = system: Mus musculus; assay: In vivo modulation of gamma secretase in APP Swedish double transgenic mouse assessed as reduction in free amyloid beta (1 to 42 residues) production measured after 4 hrs by AlphaLISA assay; format: functional, organism-based
[26] = Clearance in Wistar rat at 1 mg/kg, iv administered as single dose; format: ADME, organism-based; settings: in vivo
[27] = Terminal half life in Wistar rat at 1 mg/kg, iv administered as single dose; format: ADME, organism-based; settings: in vivo, read-out: beta t1/2 (converted)
[28] = Volume of distribution at steady state in Wistar rat at 1 mg/kg, iv administered as single dose; format: ADME, organism-based; settings: in vivo, read-out: Vdss
[29] = Oral bioavailability in Wistar rat at 3 mg/kg administered as single dose; format: ADME, organism-based; settings: in vivo

IC50 [1]: 11 nM
Structure (SMILES): Cc1cc(N2C[C@H]3CC[C@@H](C2)[C@@H]3Nc2nc3n(n2)CCCN3c2ccc(C(F)(F)F)cc2)ncn1

IC50 [1]: 32 nM
solubility [2]: 158 µg/mL (≈ 357 µM)
hepatocyte CLint [3]: 1.5 µL/min/1e6 cells
Structure (SMILES): Cc1noc(N2C[C@H]3CC[C@@H](C2)[C@@H]3Nc2nc3n(n2)CCCN3c2ccc(F)c(F)c2)n1

IC50 [1]: 15 nM
Structure (SMILES): Fc1ccc(N2CCCn3nc(N[C@@H]4[C@@H]5CC[C@H]4CN(c4ccnc(C(F)(F)F)c4)C5)nc32)cc1F

IC50 [1]: 16 nM
solubility [2]: 11 µg/mL (≈ 23.5 µM)
hepatocyte CLint [3]: 3.8 µL/min/1e6 cells
efflux ratio [4]: 1
Structure (SMILES): COc1cc(N2C[C@H]3CC[C@@H](C2)[C@@H]3Nc2nc3n(n2)CCCN3c2ccc(F)c(F)c2)ccn1
IC50 [5]: > 2000 nM
IC20 [6]: > 1000 nM

IC50 [1]: 23 nM
solubility [2]: 131 µg/mL (≈ 289 µM)
hepatocyte CLint [3]: 2.3 µL/min/1e6 cells
efflux ratio [4]: 3.3
Structure (SMILES): Cc1cc(N2C[C@H]3CC[C@@H](C2)[C@@H]3Nc2nc3n(n2)CCCN3c2ccc(F)c(F)c2)cnn1

IC50 [1]: 34 nM
Structure (SMILES): Fc1ccc(N2CCCCn3nc(N[C@@H]4[C@@H]5CC[C@H]4CN(c4ccnc(C(F)(F)F)c4)C5)nc32)cc1F

IC50 [7]: 2 nM
hepatocyte CLint [3]: 4.5 µL/min/1e6 cells
efflux ratio [4]: 2.4
IC50 [8]: 4 nM
IC50 [9]: 2 nM
IC50 [10]: 4 nM
IC50 [11]: 4 nM
logD [12]: 3.8
hepatocyte CLint [13]: 1.4 µL/min/1e6 cells
hepatocyte CLint [14]: 43 µL/min/1e6 cells
efflux ratio [15]: 3.3
fraction unbound [16]: 0.054
fraction unbound [17]: 0.014
fraction unbound [18]: 0.014
Drug metabolism [19]: Not Active
clearance [21]: 5 mL/min/kg
half-life [22]: 3.4 h
Vd [23]: 1.1 L/kg
bioavailability [24]: 53%
IC50 [25]: 2.5 nM
Structure (SMILES): Cc1cc(N2C[C@H]3CC[C@@H](C2)[C@@H]3Nc2nc3n(n2)CCCC[C@H]3c2ccc(F)c(F)c2F)ncn1
IC50 [5]: 1400 nM
IC20 [6]: 300 nM
Activity [20]: Non-Toxic

IC50 [7]: 3 nM
solubility [2]: 6 µg/mL (≈ 13.3 µM)
hepatocyte CLint [3]: 2.4 µL/min/1e6 cells
IC50 [11]: 5 nM
logD [12]: 3.5
hepatocyte CLint [13]: 0.6 µL/min/1e6 cells
hepatocyte CLint [14]: 6.4 µL/min/1e6 cells
fraction unbound [16]: 0.01
fraction unbound [17]: 0.006
fraction unbound [18]: 0.014
Drug metabolism [19]: Not Active
clearance [26]: 3.5 mL/min/kg
half-life [27]: 4.6 h
Vd [28]: 1.1 L/kg
bioavailability [29]: 82%
IC50 [25]: 3 nM
Structure (SMILES): Cc1cc(N2C[C@H]3CC[C@@H](C2)[C@@H]3Nc2nc3n(n2)CCCN3c2cc(F)cc(F)c2)ncn1
Activity [20]: Non-Toxic

IC50 [1]: 26 nM
Structure (SMILES): Cc1cc(N2C[C@H]3CC[C@@H](C2)[C@@H]3Nc2nc3n(n2)CCN3c2ccc(C(F)(F)F)cc2)ncn1

IC50 [1]: 14 nM
solubility [2]: 3.2 µg/mL (≈ 6.42 µM)
hepatocyte CLint [3]: 6 µL/min/1e6 cells
efflux ratio [4]: 1.2
Structure (SMILES): COc1cc(N2C[C@H]3CC[C@@H](C2)[C@@H]3Nc2nc3n(n2)CCCCC3c2ccc(F)c(F)c2F)ccn1 (mixture of isomers)

IC50 [1]: 126 nM
Structure (SMILES): Fc1ccc(C2CCn3nc(N[C@@H]4[C@@H]5CC[C@H]4CN(c4ccnc(C(F)(F)F)c4)C5)nc32)c(F)c1F (mixture of isomers)

IC50 [1]: 14 nM
solubility [2]: < 0.3 µg/mL
hepatocyte CLint [3]: 2.6 µL/min/1e6 cells
efflux ratio [4]: 1.5
Structure (SMILES): Fc1ccc(C2CCCCn3nc(N[C@@H]4[C@@H]5CC[C@H]4CN(c4cc(Cl)ncn4)C5)nc32)c(F)c1F (mixture of isomers)

IC50 [1]: 15 nM
solubility [2]: 0.7 µg/mL (≈ 1.45 µM)
hepatocyte CLint [3]: 3.1 µL/min/1e6 cells
efflux ratio [4]: 2.1
Structure (SMILES): Cc1cc(N2C[C@H]3CC[C@@H](C2)[C@@H]3Nc2nc3n(n2)CCCCC3c2ccc(F)c(F)c2F)ncn1 (mixture of isomers)

IC50 [1]: 237 nM
Structure (SMILES): Cc1nnc(N2C[C@H]3CC[C@@H](C2)[C@@H]3Nc2nc3n(n2)CCCC3c2ccc(F)c(F)c2F)o1 (mixture of isomers)

IC50 [1]: 30 nM
solubility [2]: 188 µg/mL (≈ 389 µM)
hepatocyte CLint [3]: 2.1 µL/min/1e6 cells
efflux ratio [4]: 20
Structure (SMILES): Cc1cc(N2C[C@H]3CC[C@@H](C2)[C@@H]3Nc2nc3n(n2)CCCCC3c2ccc(F)c(F)c2F)cnn1 (mixture of isomers)

IC50 [1]: 25 nM
Structure (SMILES): Cc1cc(N2C[C@H]3CC[C@@H](C2)[C@@H]3Nc2nc3n(n2)CCCC3c2ccc(C(F)(F)F)cc2)ncn1 (mixture of isomers)

IC50 [1]: 39 nM
Structure (SMILES): Cc1cc(N2C[C@H]3CC[C@@H](C2)[C@@H]3Nc2nc3n(n2)CCCCC3c2ccc(F)c(F)c2F)on1 (mixture of isomers)

IC50 [1]: 29 nM
Structure (SMILES): COc1cc(N2C[C@H]3CC[C@@H](C2)[C@@H]3Nc2nc3n(n2)CCCCC3c2ccc(F)c(F)c2F)ncn1 (mixture of isomers)
IC50 [5]: 550 nM
IC20 [6]: 200 nM

IC50 [1]: 44 nM
Structure (SMILES): Fc1ccc(C2CCCn3nc(N[C@@H]4[C@@H]5CC[C@H]4CN(c4ccnc(C(F)(F)F)c4)C5)nc32)c(F)c1F (mixture of isomers)

More lines, now with the values behind:

Structure (SMILES): Cc1cc(N2C[C@H]3CC[C@@H](C2)[C@@H]3Nc2nc3n(n2)CCCN3c2ccc(F)c(F)c2)ncn1
IC50 [1]: 25 nM
solubility [2]: 161 µg/mL (≈ 356 µM)
hepatocyte CLint [3]: 2 µL/min/1e6 cells
efflux ratio [4]: 3.2

Structure (SMILES): Fc1ccc(C2CCn3nc(N[C@@H]4[C@@H]5CC[C@H]4CN(c4ccnc(C(F)(F)F)c4)C5)nc32)cc1F (some centres undefined)
IC50 [1]: 88 nM

Structure (SMILES): Cc1cc(N2C[C@H]3CC[C@@H](C2)[C@@H]3Nc2nc3n(n2)CCCCN3c2ccc(C(F)(F)F)cc2)ncn1
IC50 [1]: 19 nM

Structure (SMILES): Cc1nnc(N2C[C@H]3CC[C@@H](C2)[C@@H]3Nc2nc3n(n2)CCCCC3c2ccc(F)c(F)c2F)o1 (mixture of isomers)
IC50 [1]: 49 nM

Structure (SMILES): FC(F)(F)c1cccc(C2CCCCn3nc(N[C@@H]4[C@@H]5CC[C@H]4CN(c4cnnc(Cl)c4)C5)nc32)c1 (mixture of isomers)
IC50 [1]: 31 nM

Structure (SMILES): Fc1ccc(C2CCCn3nc(N[C@@H]4[C@@H]5CC[C@H]4CN(c4cc(Cl)ncn4)C5)nc32)c(F)c1F (mixture of isomers)
IC50 [1]: 30 nM

Structure (SMILES): COc1cc(N2C[C@H]3CC[C@@H](C2)[C@@H]3Nc2nc3n(n2)CCCCC3c2cccc(C(F)(F)F)c2)cnn1 (mixture of isomers)
IC50 [1]: 40 nM

Structure (SMILES): Fc1ccc(C2CCCCn3nc(N[C@@H]4[C@@H]5CC[C@H]4CN(c4ccnc(C(F)(F)F)c4)C5)nc32)c(F)c1F (mixture of isomers)
IC50 [1]: 31 nM

Structure (SMILES): Cc1cc(N2C[C@H]3CC[C@@H](C2)[C@@H]3Nc2nc3n(n2)CCCCC3c2cccc(C(F)(F)F)c2)ncn1 (mixture of isomers)
IC50 [1]: 19 nM
solubility [2]: 34 µg/mL (≈ 68.3 µM)
hepatocyte CLint [3]: 14 µL/min/1e6 cells
efflux ratio [4]: 2.2

Structure (SMILES): Cc1cc(N2C[C@H]3CC[C@@H](C2)[C@@H]3Nc2nc3n(n2)CCCCC3c2ccc(F)c(F)c2)ncn1 (mixture of isomers)
IC50 [1]: 23 nM
hepatocyte CLint [3]: 6.5 µL/min/1e6 cells

Structure (SMILES): Fc1ccc(C2CCCCn3nc(N[C@@H]4[C@@H]5CC[C@H]4CN(c4cnnc(Cl)c4)C5)nc32)c(F)c1F (mixture of isomers)
IC50 [1]: 14 nM
solubility [2]: 14 µg/mL (≈ 27.8 µM)
hepatocyte CLint [3]: 3.3 µL/min/1e6 cells
efflux ratio [4]: 4.3

Structure (SMILES): Cc1noc(N2C[C@H]3CC[C@@H](C2)[C@@H]3Nc2nc3n(n2)CCCCC3c2ccc(F)c(F)c2F)n1 (mixture of isomers)
IC50 [1]: 44 nM

Structure (SMILES): Cc1cc(N2C[C@H]3CC[C@@H](C2)[C@@H]3Nc2nc3n(n2)CCCCC3c2ccc(C(F)(F)F)cc2)ncn1 (mixture of isomers)
IC50 [1]: 14 nM

From ChEMBL document CHEMBL4616706 (ACS Med Chem Lett, 2020)
